Values of other authors as cited in patent US11338162B2 (priority 2013, dated 2022).

What was measured:
[1] = system: rat; conditions: in vivo
[2] = system: rabbit; conditions: in vivo, topical or ocular
[3] = system: Lepomis macrochirus; conditions: in vivo
[4] = system: Leuciscus idus (Golden orfe); conditions: in vivo
[5] = system: Daphnia magna (Water flea); conditions: in vivo
[6] = system: Desmodesmus subspicatus (green algae); conditions: 24 h
[7] = system: Pseudomonas putida; conditions: 16 h

Structure (SMILES): CCCCOCCOCCO [DGME, diethylene glycol monobutyl ether]
- LD50 Oral - rat [1]: 5,660 mg/kg
- LD50 Dermal - rabbit [2]: 2,700 mg/kg
- dermal LD50 in rabbits [2]: 2700 mg/kg
- Toxicity to fish LC50 [3]: 1,300 mg/l
- Toxicity to fish LC50 [4]: >1,000 mg/l
- Toxicity to daphnia and other aquatic invertebrates LC50 - Daphnia magna (Water flea) [5]: 1,950 mg/l
- Toxicity to algae IC50 - Desmodesmus subspicatus (green algae) [6]: >100 mg/l-24 h
- Toxicity to bacteria LC50 - Pseudomonas putida [7]: 1,170 mg/l-16 h
